# Experimental data as given in article PMC12114895, “Lanthanides-Based Nanoparticles Conjugated with Rose Bengal for FRET-Mediated X-Ray-Induced PDT” (Pharmaceuticals, 2025).
# “Also recorded” adds a separate entry of the source. Like-named read-outs stand apart in the source and are kept apart here.
# Tests used:
# [1] = in ethanol; cited from earlier work
# Description: RB is a xanthene PS [22] derived from fluorescein (Figure 1a) with interesting photophysical and sonosensitive properties. For example, Nonaka et al. used sonodynamic therapy (SDT) with RB and focused ultra-sound to treat experimental intracranial glioma in rats. […] RB photoactivation can be used for external application on the body, such as wound sealing or ...
# RB fluorescence lifetime = format: physicochemical; details: D2O, λexc = 470 nm
# Protocol: The Ln luminescence lifetime is recorded after excitation at 545 nm for Tb and 313 nm for Gd. The fluorescence lifetime of RB is recorded after excitation at 470 nm ( τf470 ). ^1O2 emission spectra are obtained after excitation at 558 nm (maximum absorption wavelength of RB) but also after excitation at 351 nm for Tb and 273 nm for Gd.
# (§1) Absorption spectra were recorded on a UV-3600 UV–visible double beam spectrophotometer (Shimadzu, Marne-La-Vallée, France). Fluorescence spectra were recorded on a Fluorolog FL3-222 spectrofluorimeter (Horiba Jobin Yvon, Palaiseau, France) equipped with a 450 W Xenon lamp and thermostated cell compartment (25 °C), a UV–visible photomultiplier R928 (Hamamatsu Photonics, Hamamatsu, Japan) and an InGaAs infrared detector (DSS-16A020L Electro-Optical System Inc, Phoenixville, PA, USA). The excitation beam was diffracted by a double ruled grating SPEX monochromator (1200 grooves/mm blazed at 330 nm). The emission beam was diffracted by a double ruled grating SPEX monochromator (1200 grooves/mm blazed at 500 nm). Singlet oxygen emission was detected through a double ruled grating SPEX monochromator (600 grooves/mm blazed at 1 µm) and a long-wave pass (780 nm). All spectra were measured in four-face quartz vials.
# [2] = Singlet oxygen production quantum yield; format: physicochemical; details: D2O, reference Eosin Y; for ^1O2 quantum yield ΦΔ558: λexc = 558 nm
# [3] = Fluorescence quantum yield; format: physicochemical; details: D2O, λexc = 558 nm; reference tetraphenylporphyrin
# Protocol: as §1
# The fluorescence quantum yield (Φf) is calculated using Equation (6).(6) Φf=Φf0 . If/If0.OD0/OD. (n/n0)^2 where Φf and Φf0, If and If0, OD and OD0, n and n0 are the quantum yields, fluorescence intensities, optical densities, and refractive indices of the sample and reference, respectively.
# Tetraphenylporphyrin (TPP) was chosen as the fluorescence reference standard (Φf0 = 0.11, toluene).
# NRP-1 [4] = molecular target: T1, NRP-1 (Homo sapiens, UniProt O14786); assay: NRP-1 binding, competitive assay; details: conjugated via maleimide on AGuIX NPs
# Protocol: The affinity of AGuIX Ln@Mal-K(RB) and AGuIX Ln@Mal-K(RB)DKPPR to NRP-1 was determined as previously described in terms of IC50 in another study.
# U-251 MG cells = assay: Anchorage-dependent clonogenic assay with X-ray irradiation; format: cell-based, human; details: [RB] = 1 µM, 24 h, X-ray 2 Gy (320 kV, 10 mA, 3 Gy/min), clones after 7 days; fraction of untreated non-irradiated cells; mean, triplicates from 3 experiments (n = 9)
# Ln luminescence lifetime = format: physicochemical; details: D2O, λexc/λdetection = 273/313 nm
# [5] = Hydrodynamic size by TDA-ICP-MS; format: physicochemical; details: Table 4, listed as AGuIX Ln@Mal-K(RB)DKPPR (Ln = Gd)
# Protocol: TDA experiments were conducted using a TDA-ICP-MS hyphenation between a Sciex P/ACE MDQ instrument and a 7700 Agilent ICP-MS. Fused silica capillaries with an inner diameter of 75 µm and outer diameter of 375 µm, and a total length of 64 cm, were coated with hydroxypropylcellulose (HPC) using a solution of 0.05 g mL^−1 in water. Detection was carried out by ICP-MS at m/z = 158 and m/z = 159 for Gd and Tb detection, respectively. Samples were hydrodynamically injected (0.3psi for 3 s), then mobilized using Tris 10 mM and NaCl 125 mM at 0.7 psi. Between runs, the capillary was flushed at 5 psi for 5 min with the mobilization medium. All measurements were performed at least in duplicates.
# The detected peak was fitted by a sum of Gaussian distributions using Origin 8.5 software, according to Equation (8).(8) St=∑i=12Ai/σi 2πexp−t−t0^2/2σi2 where t0 is the peak residence time, and […] are the area under the curve and the temporal variance associated with each species i, respectively.
# Under these experimental conditions, the molecular diffusion coefficient D is given by(9) D=Rc2t0/24σ^2=2kBT/6πηDh where Rc is the capillary radius, kB is the Boltzmann constant, T is the temperature, η is the viscosity, and Dh is the hydrodynamic diameter of the solute.
# Therefore, using Equation (9), the hydrodynamic diameters can be calculated from the temporal variances measured from the fitted Taylorgram.
# Zeta potential = format: physicochemical; details: DLS, Zetasizer Nano-Z, He-Ne 633 nm; pH 7.2 mentioned; listed as AGuIX Ln@Mal-K(RB)DKPPR (Ln = Gd)
# Protocol: The zeta potential (ξ) for each NPs was determined using Zetasizer Nano-Z (Malvern, UK) equipped with a He-Ne laser at 633 nm.
# NRP-1 [6] = molecular target: T1, NRP-1; details: peptide alone, cited from earlier work
# Protocol: In the nano AGuIX platform tested, firstly, DOTA was chelated with Gd or Tb, and secondly, a targeted peptide recognizing neuropilin 1 (NRP-1) coupled to RB (i.e., K(RB)DKPPR) was conjugated to the surface of AGuIX NPs. […] In K(RB)DKPPR, conjugation via a maleimide function enhanced the affinity constant to the order of nM. Finally, NPs were tested in vitro on U-251 MG cells, derived from a human glioblastoma multiforme, using an anchorage-dependent clonogenic assay. […] An increase in SOSG fluorescence signal was observed confirming ^1O2 production, which was inhibited by the addition of NaN3 in the reaction mixture (Figure 11).
# [7] = listed as AGuIX Ln@Mal-K(RB)DKPPR (Ln = Gd)
# T1 sequence (O14786 22-923): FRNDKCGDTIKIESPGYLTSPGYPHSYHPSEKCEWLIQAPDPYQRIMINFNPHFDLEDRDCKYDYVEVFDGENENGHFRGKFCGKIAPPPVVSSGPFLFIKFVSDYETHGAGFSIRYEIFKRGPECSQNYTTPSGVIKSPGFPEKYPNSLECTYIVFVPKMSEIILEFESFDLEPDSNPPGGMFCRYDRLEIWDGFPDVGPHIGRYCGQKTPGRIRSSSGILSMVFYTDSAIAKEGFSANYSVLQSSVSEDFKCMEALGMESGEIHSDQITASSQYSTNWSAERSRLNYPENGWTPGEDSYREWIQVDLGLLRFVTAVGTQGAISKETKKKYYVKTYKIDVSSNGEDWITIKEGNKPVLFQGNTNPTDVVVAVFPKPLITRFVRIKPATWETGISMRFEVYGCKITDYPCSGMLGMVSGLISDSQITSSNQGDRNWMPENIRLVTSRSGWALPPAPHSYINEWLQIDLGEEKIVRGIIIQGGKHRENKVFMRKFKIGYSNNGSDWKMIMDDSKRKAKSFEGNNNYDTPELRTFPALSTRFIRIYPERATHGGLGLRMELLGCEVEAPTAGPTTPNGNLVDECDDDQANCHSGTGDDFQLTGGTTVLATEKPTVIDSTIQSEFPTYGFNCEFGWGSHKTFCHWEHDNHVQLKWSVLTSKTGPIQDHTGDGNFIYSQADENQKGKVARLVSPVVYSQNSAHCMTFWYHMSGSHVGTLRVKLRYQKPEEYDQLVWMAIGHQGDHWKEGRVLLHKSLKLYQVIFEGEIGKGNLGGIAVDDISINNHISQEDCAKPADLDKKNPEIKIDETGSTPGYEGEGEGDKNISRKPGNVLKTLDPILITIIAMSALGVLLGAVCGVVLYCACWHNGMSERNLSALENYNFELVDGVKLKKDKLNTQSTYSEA
compound,measurement,setting,value
"O=C1OC2(c3cc(I)c(O)c(I)c3Oc3c2cc(I)c(O)c3I)c2c(Cl)c(Cl)c(Cl)c(Cl)c21 [RB, Rose Bengal]",fluorescence quantum yield (Φf),[1],0.11
same,singlet oxygen quantum yield (ΦΔ),[1],0.68
same,RB fluorescence lifetime τf470,RB fluorescence lifetime,0.63 ns
same,^1O2 quantum yield ΦΔ351(Tb) or ΦΔ273(Gd),[2]; λexc = 351 nm or 273 nm (not told apart for RB),0.00
same,^1O2 quantum yield ΦΔ558,[2],0.67
same,Fluorescence quantum yield Φf558,[3],0.15
K(RB)DKPPR [NRP-1-targeting peptide coupled to RB],affinity for NRP-1,NRP-1 [4],order of nM; also recorded: affinity in the nM range
"Mal-K(RB)DKPPR [AGuIX Gd@Mal-K(RB)DKPPR, Mal-K(RB)DKPPR conjugated to thiolated AGuIX Gd NPs by thiol-maleimide click chemistry]",Cell survival (clonogenic capability relative to control),U-251 MG cells,0.63
same,RB fluorescence lifetime τf470,RB fluorescence lifetime; [7],3.8 ns
same,Ln luminescence lifetime τL (Gd),Ln luminescence lifetime,345 µs
same,^1O2 quantum yield ΦΔ273(Gd),[2]; λexc = 273 nm,0.35
same,^1O2 quantum yield ΦΔ558,[2]; [7],0.67
same,percentage of population P1,[5],95%
same,percentage of population P2,[5],5%
same,"Size, population P1",[5]; Tris 10 mM and NaCl 125 mM,2.9 nm
same,"Size, population P2",[5]; Tris 10 mM and NaCl 125 mM,14.0 nm
same,Fluorescence quantum yield Φf558,[3],0.11
same,Zeta potential (ζ),Zeta potential,−10 mV
KDKPPR [NRP-1-targeting peptide],affinity for NRP-1,NRP-1 [6]; ref 37,affinity of the order of μM
same,affinity for NRP-1,NRP-1 [6]; ref 40,micromolar affinity
same,binding affinity for NRP-1,NRP-1 [6]; ref 41,around 1 μM
